According to patent US8501732B2, “Aminomethyl quinolone compounds” (Hoffmann-La Roche Inc., priority 2011, dated 2013):
Where a name gives a salt, the structure may show the parent alone. Read-outs that look alike come from different tables or passages of the source.

Molecular target: JNK1 (Homo sapiens (Human), UniProt P45983)
Assay: In Vitro JNK1 Assay (TR-FRET, phosphorylation of GST-c-Jun)
Type: biochemical
Procedure: Phosphorylation of GST-c-Jun protein (amino acid residues 1-79) was measured as JNK1 activity. […] The reaction buffer contained 50 mM HEPES, pH […], 1 mM DTT, 0.1 mM Na3VO4 and 0.2 mg/mL BSA. After 30 min. incubation at room temperature, the reaction was terminated by adding buffer containing 8 mM EDTA and a polyclonal anti-phospho-c-Jun antibody (Cell Signaling #9261L), followed by an additional incubation of 30 min. at room temperature. […] Time-resolved Fluorescence Resonance Energy Transfer (TR-FRET) signals were measured 1 hr. later on the EnVision reader (Perkin Elmer). Compound potency was assessed at 10 serially diluted concentrations. Percentage of inhibition at each concentration was determined to generate an IC50 value for each compound.

[1] = 0.2 nM active JNK1 kinase, 26.7 nM GST-c-Jun, 2 μM ATP, 30 min at room temperature

Sequence of JNK1 (P45983 whole entry): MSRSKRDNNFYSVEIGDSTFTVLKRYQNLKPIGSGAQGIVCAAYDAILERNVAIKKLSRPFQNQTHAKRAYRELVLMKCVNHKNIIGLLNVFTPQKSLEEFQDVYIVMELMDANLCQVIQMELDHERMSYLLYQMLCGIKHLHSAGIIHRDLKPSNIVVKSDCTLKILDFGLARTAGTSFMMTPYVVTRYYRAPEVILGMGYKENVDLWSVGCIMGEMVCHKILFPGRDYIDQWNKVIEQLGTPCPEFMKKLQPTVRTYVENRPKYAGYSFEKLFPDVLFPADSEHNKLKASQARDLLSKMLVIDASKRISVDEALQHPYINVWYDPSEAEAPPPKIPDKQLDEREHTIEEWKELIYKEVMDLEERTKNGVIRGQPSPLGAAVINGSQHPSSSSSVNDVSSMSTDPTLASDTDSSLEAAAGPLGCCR

Compound | IC50 [1] [nM] | IC50 [nM]
COc1ccc(NC(=O)NCc2cn(-c3ccccc3)c3cc(Cl)ccc3c2=O)cc1 [Example I-203, 1-(7-Chloro-4-oxo-1-phenyl-1,4-dihydro-quinolin-3-ylmethyl)-3-(4-methoxy-phenyl)-urea] | 650 | –
CS(=O)(=O)C1CCN(C(=O)N2CCC(NC(=O)NCc3cn(-c4ccccc4)c4cc(Cl)ccc4c3=O)CC2)CC1 [Example I-199, 1-(7-Chloro-4-oxo-1-phenyl-1,4-dihydro-quinolin-3-ylmethyl)-3-[1-(4-methanesulfonyl-piperidine-1-carbonyl)-piperidin-4-yl]-urea] | 1600 | –
N#C/N=C(/NCc1cn(-c2ccccc2)c2cc(Cl)ccc2c1=O)N1CCOCC1 [Example I-177, [(7-Chloro-4-oxo-1-phenyl-1,4-dihydro-quinolin-3-ylmethyl)-amino]-morpholin-4-yl-methylene-cyanamide] | 1200 | –
NC1CCN(c2ccc(C(=O)NCc3cn(-c4ccccc4)c4cc(Cl)ccc4c3=O)cn2)CC1 [Example I-90, 4-Amino-3,4,5,6-tetrahydro-2H-[1,2′]bipyridinyl-5′-carboxylic acid (7-chloro-4-oxo-1-phenyl-1,4-dihydro-quinolin-3-ylmethyl)-amide trifluoroacetate] | 130 | –
O=C(NCc1cn(-c2ccccc2F)c2cc(F)ccc2c1=O)c1ccc(N2CCS(=O)(=O)CC2)nc1 [Example I-107, 6-(1,1-Dioxo-1-thiomorpholin-4-yl)-N-[7-fluoro-1-(2-fluoro-phenyl)-4-oxo-1,4-dihydro-quinolin-3-ylmethyl]-nicotinamide] | 100 | –
1-(4-Chloro-3-fluoro-phenyl)-3-(7-chloro-4-oxo-1-phenyl-1,4-dihydro-quinolin-3-yl-methyl)-urea [Example I-204] | 1100 | –
O=C(NCc1cn(-c2ccccc2)c2cc(Cl)ccc2c1=O)NC1CCN(C(=O)c2ccccc2)CC1 [Example I-194, 1-(1-Benzoyl-piperidin-4-yl)-3-(7-chloro-4-oxo-1-phenyl-1,4-dihydro-quinolin-3-yl-methyl)-urea] | 190 | –
O=C(NCc1cn(-c2ccccc2)c2cc(Cl)ccc2c1=O)c1cn(Cc2ccccc2)nn1 [Example I-55, 1-Benzyl-1H-[1,2,3]triazole-4-carboxylic acid (7-chloro-4-oxo-1-phenyl-1,4-dihydro-quinolin-3-ylmethyl)-amide] | 700 | –
CC(C)(C)OC(=O)N1CCC(C(=O)NCc2cn(-c3ccccc3)c3cc(Cl)ccc3c2=O)C1 (centres unmarked) [Example I-51, 3-[(7-Chloro-4-oxo-1-phenyl-1,4-dihydro-quinolin-3-ylmethyl)-carbamoyl]-pyrrolidine-1-carboxylic acid tert-butyl ester] | 330 | –
O=C(NCc1cn(-c2ccccc2)c2cc(Cl)ccc2c1=O)c1ccc(N2CC[C@H](O)C2)nc1 [Example I-87, N-(7-Chloro-4-oxo-1-phenyl-1,4-dihydro-quinolin-3-ylmethyl)-6-((S)-3-hydroxy-pyrrolidin-1-yl)-nicotinamide] | 120 | –
Cn1cc(C(=O)NCc2cn(-c3ccccc3)c3cc(Cl)ccc3c2=O)nn1 [Example I-53, 1-Methyl-1H-[1,2,3]triazole-4-carboxylic acid (7-chloro-4-oxo-1-phenyl-1,4-dihydro-quinolin-3-ylmethyl)-amide] | 560 | –
O=C(NCc1cn(-c2ccccc2)c2cc(Cl)ccc2c1=O)c1cnc2nc[nH]c2c1 [Example I-49, 1H-Imidazo[4,5-b]pyridine-6-carboxylic acid (7-chloro-4-oxo-1-phenyl-1,4-dihydro-quinolin-3-ylmethyl)-amide] | 230 | –
COC(=O)c1c(CNC(=O)C2CCN(S(C)(=O)=O)CC2)c(=O)c2ccc(Cl)cc2n1-c1ccccc1 [Example I-131, 7-Chloro-3-{[(1-methanesulfonyl-piperidine-4-carbonyl)-amino]-methyl}-4-oxo-1-phenyl-1,4-dihydro-quinoline-2-carboxylic acid methyl ester] | 640 | –
Cn1cnc2cc(C(=O)NCc3cn(-c4ccccc4)c4cc(Cl)ccc4c3=O)cnc21 [Example I-45, 3-Methyl-3H-imidazo[4,5-b]pyridine-6-carboxylic acid (7-chloro-4-oxo-1-phenyl-1,4-dihydro-quinolin-3-ylmethyl)-amide] | 110 | –
O=C(NCc1cn(-c2ccccc2)c2cc(Cl)ccc2c1=O)c1ccn(Cc2cccc(Cl)c2)c(=O)c1 [Example I-44, 1-(3-Chloro-benzyl)-2-oxo-1,2-dihydro-pyridine-4-carboxylic acid (7-chloro-4-oxo-1-phenyl-1,4-dihydro-quinolin-3-ylmethyl)-amide] | 110 | –
CS(=O)(=O)N1CCC(NC(=O)NCc2cn(-c3ccccc3)c3cc(Cl)ccc3c2=O)CC1 [Example I-197, 1-(7-Chloro-4-oxo-1-phenyl-1,4-dihydro-quinolin-3-ylmethyl)-3-(1-methanesulfonyl-piperidin-4-yl)-urea] | 2100 | –

Compound | IC50 [1] [nM] | IC50 [nM]
COC(=O)c1ccc(NC(=O)NCc2cn(-c3ccccc3)c3cc(Cl)ccc3c2=O)cc1 [Example I-206, 4-[3-(7-Chloro-4-oxo-1-phenyl-1,4-dihydro-quinolin-3-ylmethyl)-ureido]-benzoic acid methyl ester] | 2700 | –
O=C(NCc1cn(-c2ccccc2)c2cc(Cl)ccc2c1=O)N1CCOCC1 [Example I-200, Morpholine-4-carboxylic acid (7-chloro-4-oxo-1-phenyl-1,4-dihydro-quinolin-3-ylmethyl)-amide] | 850 | –
CN1CCN(C(=O)NCc2cn(-c3ccccc3)c3cc(Cl)ccc3c2=O)CC1 [Example I-187, 4-Methyl-piperazine-1-carboxylic acid (7-chloro-4-oxo-1-phenyl-1,4-dihydro-quinolin-3-ylmethyl)-amide] | 1400 | –
O=C(NCc1cn(-c2ccccc2)c2cc(Cl)ccc2c1=O)N1CCC(c2ccccc2)CC1 [Example I-190, 4-Phenyl-piperidine-1-carboxylic acid (7-chloro-4-oxo-1-phenyl-1,4-dihydro-quinolin-3-ylmethyl)-amide] | 2100 | –
CN(C)C(=O)c1c(CNC(=O)c2ccc3c(c2)OCCO3)c(=O)c2ccc(Cl)cc2n1-c1ccccc1 [Example I-21, 7-Chloro-3-{[(2,3-dihydro-benzo[1,4]dioxine-6-carbonyl)-amino]-methyl}-4-oxo-1-phenyl-1,4-dihydro-quinoline-2-carboxylic acid dimethylamide] | 460 | –
O=C(NCc1cn(-c2ccccc2F)c2cc(F)ccc2c1=O)c1ccc(Cl)nc1 [Example I-105, 6-Chloro-N-[7-fluoro-1-(2-fluoro-phenyl)-4-oxo-1,4-dihydro-quinolin-3-yl-methyl]-nicotinamide] | 150 | –
COC(=O)c1c(CNC(=O)C(C)C)c(=O)c2ccc(Cl)cc2n1-c1ccccc1 [Example I-147, 7-Chloro-3-(isobutyrylamino-methyl)-4-oxo-1-phenyl-1,4-dihydro-quinoline-2-carboxylic acid methyl ester] | 200 | –
O=C(NCc1cn(-c2ccccc2)c2cc(Cl)ccc2c1=O)NC1CCN(C(=O)OCc2ccccc2)CC1 [Example I-195, 4-[3-(7-Chloro-4-oxo-1-phenyl-1,4-dihydro-quinolin-3-ylmethyl)-ureido]-piperidine-1-carboxylic acid benzyl ester] | 580 | –
COC(=O)c1ccc(C(=O)NCc2c(-c3ncco3)n(-c3ccccc3)c3cc(Cl)ccc3c2=O)cn1 [Example I-5, 5-[(7-Chloro-2-oxazol-2-yl-4-oxo-1-phenyl-1,4-dihydro-quinolin-3-ylmethyl)-carbamoyl]-pyridine-2-carboxylic acid methyl ester] | 25 | –
CN(C)c1ccc(NC(=O)NCc2cn(-c3ccccc3)c3cc(Cl)ccc3c2=O)cc1 [Example I-202, 1-(7-Chloro-4-oxo-1-phenyl-1,4-dihydro-quinolin-3-ylmethyl)-3-(4-dimethylamino-phenyl)-urea] | 630 | –
COC(=O)c1c(CNC(=O)Oc2ccccc2)c(=O)c2ccc(Cl)cc2n1-c1ccccc1 [Example I-210, 7-Chloro-4-oxo-3-(phenoxycarbonylamino-methyl)-1-phenyl-1,4-dihydro-quinoline-2-carboxylic acid methyl ester] | – | 1100
CC(C)(C)OC(=O)N[C@H]1CC[C@H](NC(=O)NCc2cn(-c3ccccc3)c3cc(Cl)ccc3c2=O)CC1 [Example I-182, {4-[3-(7-Chloro-4-oxo-1-phenyl-1,4-dihydro-quinolin-3-ylmethyl)-ureido]-cyclohexyl}-carbamic acid tert-butyl ester] | 700 | –
O=c1c(CNc2nc3ccccc3[nH]2)cn(-c2ccccc2)c2cc(Cl)ccc12 [Example I-176, 3-[(1H-Benzoimidazol-2-ylamino)-methyl]-7-chloro-1-phenyl-1H-quinolin-4-one] | 850 | –
COC(=O)[C@H]1CC[C@H](NC(=O)NCc2cn(-c3ccccc3)c3cc(Cl)ccc3c2=O)CC1 [Example I-189, 4-[3-(7-Chloro-4-oxo-1-phenyl-1,4-dihydro-quinolin-3-ylmethyl)-ureido]-cyclohexanecarboxylic acid methyl ester] | 2000 | –
O=C(NCc1cn(-c2ccccc2Cl)c2cc(Cl)ccc2c1=O)c1ccc(Br)nc1 [Example I-101, 6-Bromo-N-[7-chloro-1-(2-chloro-phenyl)-4-oxo-1,4-dihydro-quinolin-3-ylmethyl]-nicotinamide] | 600 | –
COC(=O)c1c(CNC(=O)c2ccccc2OC)c(=O)c2ccc(Cl)cc2n1-c1ccccc1 [Example I-149, 7-Chloro-3-[(2-methoxy-benzoylamino)-methyl]-4-oxo-1-phenyl-1,4-dihydro-quinoline-2-carboxylic acid methyl ester] | 670 | –
